Measurements taken from US20050048508A1, “Trehalose receptor and method for detecting trehalose with the same” (KABUSHIKI KAISHA HAYASHIBARA SEIBUTSU KAGAKU KENKYUJO, priority 2002, published 2005).
Residues, ends and D or L forms follow the SMILES beside them.

The compounds below were run against T1, T1R3 with G protein α-subunits (α15 and α16/Z chimeric protein) (Mus musculus, UniProt Q925D8, I706N) (assay: Intracellular calcium ion assay, 293 cells coexpressing G protein α-subunits and T1R3 (trehalose receptor)). Settings: Table 4: sweet taste substances on cells coexpressing G protein α-subunits and T1R3, measured similarly as in Example 4.
T1 construct: expressed in transfected cells; host or cells: 293 cells, RCB 1637 (human embryonic kidney)
T1 sequence (Q925D8 21-858 I706N): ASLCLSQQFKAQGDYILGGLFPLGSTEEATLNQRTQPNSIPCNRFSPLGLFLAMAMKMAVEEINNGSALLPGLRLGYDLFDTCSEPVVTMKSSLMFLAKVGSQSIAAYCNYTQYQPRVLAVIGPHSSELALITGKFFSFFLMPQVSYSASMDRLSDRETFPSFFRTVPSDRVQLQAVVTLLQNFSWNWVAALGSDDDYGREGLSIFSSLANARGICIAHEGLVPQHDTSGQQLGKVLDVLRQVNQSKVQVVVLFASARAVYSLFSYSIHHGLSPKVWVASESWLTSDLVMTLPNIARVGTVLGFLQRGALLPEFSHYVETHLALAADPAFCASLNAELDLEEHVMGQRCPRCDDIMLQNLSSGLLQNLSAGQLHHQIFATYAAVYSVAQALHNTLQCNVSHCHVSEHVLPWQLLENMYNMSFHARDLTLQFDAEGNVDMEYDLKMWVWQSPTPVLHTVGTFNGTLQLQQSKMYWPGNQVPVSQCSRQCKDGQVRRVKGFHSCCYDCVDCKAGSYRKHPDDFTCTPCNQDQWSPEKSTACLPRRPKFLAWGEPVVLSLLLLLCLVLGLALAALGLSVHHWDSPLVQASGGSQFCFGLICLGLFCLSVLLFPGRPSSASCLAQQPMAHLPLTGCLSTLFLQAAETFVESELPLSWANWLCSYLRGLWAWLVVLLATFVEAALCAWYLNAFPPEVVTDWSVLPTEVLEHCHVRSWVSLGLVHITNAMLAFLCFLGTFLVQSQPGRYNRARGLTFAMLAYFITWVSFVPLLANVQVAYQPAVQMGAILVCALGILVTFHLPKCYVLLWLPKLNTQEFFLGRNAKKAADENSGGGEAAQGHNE
Format: cell-based
Procedure: The coexpression vector for the G protein α-subunit α15 and the G protein α16/Z chimeric protein (hereinafter designated as “G protein α-subunits”) obtained in Example 1-3 was gene transferred to 293 cells, RCB 1637, a human embryonic kidney cell line, available from the Riken Bioresource Center, Ibaraki, Japan, by conventional lipofection. The gene transferred cells were suspended in Dulbecco's Modified Eagle's Medium (D-MEM) supplemented with 1 mg/L of “PUROMYCIN”, a trade mane of puromycin commercialized by Edge Biosystems, MD, USA, and 10% (v/v) of fetal calf serum to give a cell density of 2×10^6 cells/ml and cultured in a plastic petri dish for cell culture. After 10 to 14 days of incubation, a puromycin-resistant cell colony was collected and confirmed its production of the G protein α-subunit proteins with an index of their mRNA level by conventional RT-PCR. Thus, a cell line capable of expressing the G protein α-subunit proteins was established. To the cells were gene transferred an expression vector for the sweet taste receptor protein T1R1, T1R2, or T1R3 in Example 2-2; or a coexpression vector for a pair of T1R1 and T1R2, T1R1 and T1R3, or T1R2 and T1R3 by conventional lipofection. The resulting cells were suspended in D-MEM supplemented with 1 mg/L of “PUROMYCIN”, 500 mg/L of “GENETICIN”, and 10% (v/v) of fetal calf serum and cultured in a plastic petri dish for cell culture. After 10 to 14 days of incubation, a cell colony resistant to both of the above drugs was collected and confirmed that the transferred gene had been expressed intracellularly as expected by conventional RT-PCR at a mRNA level. Thus, a cell, which had coexpressed the desired G proteins and sweet taste receptors, was obtained. As a control, a cell, into which an expression vector with no G protein α-subunit protein gene or sweet taste receptor protein gene, was prepared and used.
The captioned reactivity test was conducted according to a conventional intracellular calcium ion assay: 293 Cells prepared in Example 3, capable of coexpressing the G protein α-subunits and the sweet taste receptor(s), were cultured in a plastic petri dish for cell culture until reaching its confluent phase. Thereafter, the cells were detached from the inner surface of the petri dish with a 0.05% (v/v) trypsin solution and a 0.53 mM EDTA solution, suspended in D-MEM supplemented with 10% (v/v) fetal calf serum to give a cell density of 1×10^6 cells/ml, and allowed to intake “FLUO-4. AM”, a reagent for detecting intracellular calcium ion commercialized by Molecular Probes Inc., Ore., USA, by adding to the cell suspension to give a final concentration of 2 μM and incubating the cells at 37 ° C. for 30 to 90 min. The resulting cells were washed with a buffer for detecting calcium ion, which contained 10 mM HEPES (pH 7.4), 130 mM sodium chloride, 5.4 mM potassium chloride, 2 mM calcium chloride, 1 mM magnesium chloride, 5.5 mM D-glucose, 0.1% (v/v) calf serum albumin, and 1 mM sodium pyruvate to remove the reagent remained extracellularly; suspended in a fresh preparation of the same buffer to give a cell density of 2.67 ×10^7 cells/ml; filtered with a membrane with a pore size of 100 μm mesh; and allowed to stand at 25° C. for 30 min. Two milliliters of the resultant cell suspension was injected into a glass cuvette, commercialized by Hitachi, Ltd., Tokyo, Japan, and analyzed on “HITACHI 650-40”, a fluorescence spectrophotometer commercialized by Hitachi, Ltd., Tokyo, Japan. […]

Influx of calcium ion	SMILES
Negative	C[C@H](N)C(=O)O [Alanine]
Negative	COC(=O)[C@H](Cc1ccccc1)NC(=O)[C@@H](N)CC(=O)O [Aspartame] (HELM PEPTIDE1{D.F.[CO[*:1]]}$$$$V2.0)
Negative	OC[C@@H](O)[C@@H](O)CO [Erythritol]
Negative	O=C(CO)[C@@H](O)[C@H](O)[C@H](O)CO [Fructose]
Negative	O=C[C@H](O)[C@@H](O)[C@@H](O)[C@H](O)CO [Galactose]
Negative	NCC(=O)O [L-Glycine]
Negative	OC[C@@H](O)[C@@H](O[C@H]1O[C@H](CO)[C@@H](O)[C@H](O)[C@H]1O)[C@H](O)[C@@H](O)CO [Maltitol]
Negative	OC[C@H]1O[C@H](O[C@]2(CCl)O[C@H](CCl)[C@@H](O)[C@@H]2O)[C@H](O)[C@@H](O)[C@H]1Cl [Sucralose]
